Reference: ChEMBL document CHEMBL6182943, “Identification of 4'-Thiouridine as an Orally Available Antiviral Agent Targeting Both RdRp and NiRAN Functions of SARS-CoV-2 Nsp12” (J Med Chem, 2025)
The source made the active and inactive calls. The rule behind the calls is not given here.

How the values were obtained:
[1] = test system: SARS-CoV-2; assay: (§1) Antiviral activity against SARS-CoV-2 infected in hACE2 expressing female B6.Cg-Tg(K18-ACE2)2Prlmn/J mouse model assessed as reduction in body weight loss at 100 mg/kg, po preadministered twice daily for 4 days at 8 hrs interval with four hours before and after viral challenge and measured 9 days post viral challenge; type: functional, organism-based; settings: Severe acute respiratory syndrome coronavirus 2, time 9.0 day
[2] = Cytotoxicity against HEK293T cells assessed as reduction in cell viability measured after 48 hrs by MTT assay; type: toxicity, cell-based, HEK-293T; settings: human
[3] = Cytotoxicity against human Huh-7 cells assessed as reduction in cell viability by MTT-based cell viability assay; type: toxicity
[4] = test system: SARS-CoV-2; assay: (§2) Antiviral activity against SARS-CoV-2 infected in african green monkey Vero cells assessed as reduction in number of spike-protein expressing cells at 30 uM pre-infected for 30 mins followed by compound addition and measured 48 hrs post-infection by DAPI staining based immunofluorescence analysis relative to control; type: functional, Severe acute respiratory syndrome coronavirus 2; design: scale not given: the % may be the effect or the level left; settings: time 47.5 hrs
[5] = Oral bioavailability in male ICR mouse at 10 mg/kg measured after 24 hrs by LC-MS/MS analysis; type: ADME, organism-based; settings: in vivo
[6] = AUCinfinity in male ICR mouse at 5 mg/kg, iv measured after 24 hrs by LC-MS/MS analysis; type: ADME, organism-based; settings: in vivo
[7] = test system: Human coronavirus NL63; assay: Antiviral activity against HCoV-NL63 infected in LLC-MK2 cells assessed as inhibition of virus-induced cytopathic effect measured 2 to 7 days post infection by MTT-based cell viability assay; type: functional, organism-based
[8] = test system: SARS-CoV-2; assay: as §1, with “14” for “9”; type: functional, organism-based; settings: Severe acute respiratory syndrome coronavirus 2, time 14.0 day
[9] = MRTinfinity in male ICR mouse at 5 mg/kg, iv measured after 24 hrs by LC-MS/MS analysis; type: ADME, organism-based; settings: in vivo
[10] = test system: SARS-CoV-2; assay: as §2, with “SARS-CoV-2 Wuhan-like (hCoV-19/Korea/KCDC06/2020)” for “SARS-CoV-2”, “human Calu-3” for “african green monkey Vero”, “cells” for “cells at 30 uM”; type: functional, organism-based; settings: Severe acute respiratory syndrome coronavirus 2, Wuhan-like (hCoV-19/Korea/KCDC06/2020)
[11] = Cmax in male ICR mouse at 10 mg/kg, po measured after 24 hrs by LC-MS/MS analysis; type: ADME, organism-based; settings: in vivo
[12] = test system: SARS-CoV-2; assay: Antiviral activity against SARS-CoV-2 infected in african green monkey Vero cells assessed as reduction in number of spike-protein expressing cells pre-infected for 30 mins followed by compound addition and measured 48 hrs post-infection by DAPI staining based immunofluorescence analysis; type: functional, organism-based; settings: Severe acute respiratory syndrome coronavirus 2, Vero
[13] = MRTlast in male ICR mouse at 10 mg/kg, po measured after 24 hrs by LC-MS/MS analysis; type: ADME, organism-based; settings: in vivo
[14] = test system: SARS-CoV-2; assay: Antiviral activity against SARS-CoV-2 infected in African green monkey Vero cells assessed as reduction in viral N protein level at 1 to 10 uM measured after 1 day by Western blot analysis relative to control; type: functional, Severe acute respiratory syndrome coronavirus 2; design: scale not given: the % may be the effect or the level left; settings: dose 1-10 µM
[15] = Terminal half-life in male ICR mouse at 5 mg/kg, iv measured after 24 hrs by LC-MS/MS analysis; type: ADME, organism-based; settings: in vivo, read-out: beta t1/2 (converted)
[16] = MRTinfinity in male ICR mouse at 10 mg/kg, po measured after 24 hrs by LC-MS/MS analysis; type: ADME, organism-based; settings: in vivo
[17] = AUCinfinity in male ICR mouse at 10 mg/kg, po measured after 24 hrs by LC-MS/MS analysis; type: ADME, organism-based; settings: in vivo
[18] = test system: Influenza B virus; assay: Antiviral activity against Influenza B virus B/Lee/40 infected in MDCK cells assessed as reduction in virus-induced cytopathic effect incubated for 3 days in presence of TPCK-treated trypsin by MTT assay; type: functional, organism-based; settings: B/Lee/40, MDCK, 72 h
[19] = Terminal half-life in male ICR mouse at 10 mg/kg, po measured after 24 hrs by LC-MS/MS analysis; type: ADME, organism-based; settings: in vivo, read-out: beta t1/2 (converted)
[20] = test system: SARS-CoV-2; assay: as §2, with “SARS-CoV-2 Gamma (hCoV-19/Korea95637/KDCA/2021)” for “SARS-CoV-2”, “human Calu-3” for “african green monkey Vero”, “cells” for “cells at 30 uM”; type: functional, organism-based; settings: Severe acute respiratory syndrome coronavirus 2, Gamma (hCoV-19/Korea95637/KDCA/2021)
[21] = test system: Influenza A virus; assay: Antiviral activity against Influenza A virus A/Hong Kong/8/68 (H3N2) infected in MDCK cells assessed as reduction in virus-induced cytopathic effect incubated for 3 days in presence of TPCK-treated trypsin by MTT assay; type: functional, organism-based; settings: 72 h
[22] = test system: SARS-CoV-2; assay: as §2, with “SARS-CoV-2 Omicron (hCoV-19/Korea/KDCA447321/2021)” for “SARS-CoV-2”, “human Calu-3” for “african green monkey Vero”, “cells” for “cells at 30 uM”; type: functional, organism-based; settings: Severe acute respiratory syndrome coronavirus 2, Omicron (hCoV-19/Korea/KDCA447321/2021)
[23] = Cytotoxicity against golden hamster BHK-21 cells assessed as reduction in cell viability by MTT assay; type: toxicity, cell-based, Mesocricetus auratus
[24] = test system: Influenza A virus (H1N1); assay: Antiviral activity against Influenza A virus A/Puerto Rico/8/34 (H1N1) infected in MDCK cells assessed as reduction in virus-induced cytopathic effect incubated for 3 days in presence of TPCK-treated trypsin by MTT assay; type: functional, organism-based; settings: 72 h
[25] = Cytotoxicity against human H1-HeLa cells assessed as reduction in cell viability incubated for 72 hrs; type: toxicity, cell-based
[26] = test system: rhinovirus B14; assay: Antiviral activity against Human rhinovirus B14 infected in human H1-HeLa cells incubated for 72 hrs; type: functional, organism-based; settings: Rhinovirus B
[27] = test system: SARS-CoV-2; assay: as §1, with “50” for “100”, “14” for “9”; type: functional, organism-based; settings: Severe acute respiratory syndrome coronavirus 2, time 14.0 day
[28] = test system: SARS-CoV-2; assay: Antiviral activity against SARS-CoV-2 infected in African green monkey Vero cells assessed as reduction in viral N protein level measured after 1 day by Western blot analysis; type: functional, organism-based; settings: Severe acute respiratory syndrome coronavirus 2, dose 0.1-10 µM
[29] = test system: Zaire ebolavirus; assay: Antiviral activity against Zaire Ebola virus infected in HEK293T cells transfected with viral replication protein and Renilla luciferase pre-infected for 4 hrs followed by compound addition and measured after 48 hrs by Dual-luciferase reporter assay; type: functional, organism-based; settings: HEK-293T
[30] = test system: SARS-CoV-2; assay: Antiviral activity against SARS-CoV-2 infected in hACE2 expressing female B6.Cg-Tg(K18-ACE2)2Prlmn/J mouse model assessed as survival rate at 100 mg/kg, po preadministered twice daily for 4 days at 8 hrs interval with four hours before and after viral challenge and measured 14 days post viral challenge relative to control; type: functional; settings: Severe acute respiratory syndrome coronavirus 2, 336 h, time 14 day
[31] = test system: dengue virus type 2; assay: Antiviral activity against Dengue virus 2 infected in BHK-21 cells transfected with Renilla luciferase tagged viral subgenomic replicon incubated for 48 hrs by luciferase based assay; type: functional, organism-based; settings: BHK-21, 48 h
[32] = AUClast in male ICR mouse at 10 mg/kg, po measured after 24 hrs by LC-MS/MS analysis; type: ADME, organism-based; settings: in vivo
[33] = Cytotoxicity against African green monkey Vero cells assessed as reduction in cell viability incubated for 48 hrs by MTT assay; type: toxicity, cell-based; settings: chlorocebus sabaeus
[34] = Clearance in male ICR mouse at 5 mg/kg, iv measured after 24 hrs by LC-MS/MS analysis; type: ADME, organism-based; settings: in vivo
[35] = Cytotoxicity against human Calu-3 cells assessed as reduction in cell viability incubated for 48 hrs by MTT assay; type: toxicity, cell-based
[36] = Tmax in male ICR mouse at 10 mg/kg, po measured after 24 hrs by LC-MS/MS analysis; type: ADME, organism-based; settings: in vivo
[37] = MRTlast in male ICR mouse at 5 mg/kg, iv measured after 24 hrs by LC-MS/MS analysis; type: ADME, organism-based; settings: in vivo
[38] = Cytotoxicity against MDCK cells assessed as reduction in cell viability incubated for 3 days by MTT assay; type: toxicity, cell-based, Canis lupus familiaris; settings: dog, time 3 day
[39] = test system: Middle East respiratory syndrome-related coronavirus; assay: Antiviral activity against MERS-CoV KOR/KNIH/002_05_2015 infected in human Huh-7 cells assessed as inhibition of virus-induced cytopathic effect measured 2 to 7 days post infection by MTT-based cell viability assay; type: functional, organism-based; settings: KOR/KNIH/002_05_2015, Huh-7
[40] = test system: SARS-CoV-2; assay: Antiviral activity against SARS-CoV-2 infected in african green monkey Vero cells assessed as nuclear occupancy at 30 uM pre-infected for 30 mins followed by compound addition and measured 48 hrs post-infection by DAPI staining based immunofluorescence analysis relative to control; type: functional, Severe acute respiratory syndrome coronavirus 2; settings: time 47.5 hrs
[41] = test system: SARS-CoV-2; assay: as §2, with “SARS-CoV-2 Delta (hCoV-19/Korea/KDCA119861/2021)” for “SARS-CoV-2”, “human Calu-3” for “african green monkey Vero”, “cells” for “cells at 30 uM”; type: functional, organism-based; settings: Severe acute respiratory syndrome coronavirus 2, Delta (hCoV-19/Korea/KDCA119861/2021)
[42] = Cytotoxicity against rhesus monkey LLC-MK2 cells assessed as reduction in cell viability by MTT-based cell viability assay; type: toxicity, Macaca mulatta
[43] = test system: SARS-CoV-2; assay: Antiviral activity against SARS-CoV-2 infected in African green monkey Vero cells assessed as reduction in viral RNA copy number at 0.1 to 10 uM measured after 1 day by qRT-PCR analysis; type: functional, organism-based; settings: Severe acute respiratory syndrome coronavirus 2, dose 0.1-10 µM
[44] = AUClast in male ICR mouse at 5 mg/kg, iv measured after 24 hrs by LC-MS/MS analysis; type: ADME, organism-based; settings: in vivo

O=c1ccn([C@@H]2S[C@H](CO)[C@@H](O)[C@H]2O)c(=O)[nH]1
Activity [1]: Active
CC50 at 48 h [2]: 81.1 µM
CC50 [3]: > 100 µM
Activity [4]: >80%
bioavailability [5]: 109%
AUC(0-inf) [6]: 20.5 µg·h/mL
EC50 [7]: 4.53 µM
Activity [8]: Active
MRT inf [9]: 11.4 h
EC50 [10]: 4.08 µM
Cmax [11]: 4.98 µg/mL
EC50 [12]: 1.71 µM
MRT last at 24 h [13]: 6.84 h
Activity [14]: 100%
half-life [15]: 8.87 h
MRT inf [16]: 10.5 h
AUC(0-inf) [17]: 43.6 µg·h/mL
EC50 [18]: 20.4 µM
half-life [19]: 8.2 h
EC50 [20]: 3.48 µM
EC50 [21]: 15.3 µM
EC50 [22]: 2.66 µM
CC50 [23]: 93.7 µM
EC50 [24]: 13.4 µM
CC50 at 72 h [25]: > 100 µM
EC50 [26]: 23.7 µM
Activity [27]: inactive
Activity [28]: Dose-dependent-effect
EC50 [29]: 33 µM
survival at 100 mg/kg [30]: 40%
EC50 [31]: 42 µM
AUC(0-t) at 24 h [32]: 38 µg·h/mL
CC50 at 48 h [33]: > 100 µM
clearance [34]: 0.25 L/h/kg
CC50 at 48 h [35]: > 100 µM
Tmax [36]: 1 h
MRT last at 24 h [37]: 7.16 h
CC50 at 72 h [38]: > 100 µM
EC50 [39]: 4.04 µM
Activity [40]: >80%
EC50 [41]: 7.6 µM
CC50 [42]: > 100 µM
Activity [43]: Active
AUC(0-t) at 24 h [44]: 17.5 µg·h/mL
